Test results as given in ChEMBL document CHEMBL1149893, “Recent developments of carbonic anhydrase inhibitors as potential anticancer drugs” (J Med Chem, 2008).

Target: Carbonic anhydrase 9 (Homo sapiens, UniProt Q16790)

| SMILES | Ki |
| --- | --- |
| CC(=O)OC[C@H]1O[C@@H](On2cc(CNC(=O)c3ccc(S(N)(=O)=O)cc3)nn2)[C@H](OC(C)=O)[C@@H](OC(C)=O)[C@@H]1OC(C)=O | 76 nM |
| COC(=O)[C@H]1O[C@@H](On2cc(CNC(=O)c3ccc(S(N)(=O)=O)cc3)nn2)[C@H](O)[C@@H](O)[C@@H]1O | 23 nM |
